Assays:
[1] = Intravenous and oral dosing pharmacokinetic screen, plasma concentration by LC/MS/MS; parameters: species or system C57BL/6 mice; details: male, C57BL/6, mouse, in vivo
Procedure: Tucaresol, Compound B02, Compound C01, Compound C02-1, and Compound C02 were dosed once, by IV bolus (3 mg/kg in 20% hydroxyprophyl-13-cyclodextrin with 1 eq NaOH) or PO (10 mg/kg in 1% carboxymethylcellulose/0.1% tween-80 in water), to non-fasted male C57BL/6 mice. Animals were bled from the dorsal metatarsal vein (from the heart for 24 hour time point) for K2-EDTA plasma 0.083 (for IV only), 0.25, 0.5, 1, 2, 4, 8, and 24 hours after dosing. The plasma concentration of the dosed tucaresol or compound were measured by LC/MS/MS (I-CMS-8060 instrument for MS). PK parameters were then calculated with WinNonlin 6.1. For Compounds C01, CO2 and CO2-1, stability in C57BL/6 K2EDTA plasma was also evaluated at 22° C. over 1 hour by utilizing LC.

[2] = Body weight in MC38 model (Example 10); assay type: in vivo; details: for Mean Body Weight: in g (unit assumed)
Procedure: After tumor cell inoculation, the animals were checked daily for morbidity and mortality. During routine monitoring, the animals were checked for any effects of tumor growth and treatments on behavior such as mobility, food and water consumption, body weight gain/loss (Body weights were measured three times a week after randomization), eye/hair matting and any other abnormalities. Mortality and observed clinical signs were recorded for individual animals in detail.
Tumor volumes were measured three times a week after randomization in two dimensions using a caliper, and the volume was expressed in mm^3 using the formula: V=(L×W×W)/2, where V is tumor volume, L is tumor length (the longest tumor dimension) and W is tumor width (the longest tumor dimension perpendicular to L). Dosing as well as tumor and body weight measurements were conducted in a Laminar Flow Cabinet. The body weights and tumor volumes were measured by using StudyDirector™ software (version 3.1.399.19).
After one measurement of body weight loss (BWL)>20% or BWL>15% for consecutive 72 hours, the individual mouse was sacrificed. BWL was calculated based on the BW of mouse on the first day of treatment. After one measurement of BWL>15%, dosing holidays were given to the individual mouse with BWL>15% which was housed in a separate cage alone with daily monitoring for 72 hours, while other mice in the same group would receive dosing as scheduled., treatment was resumed when the BWL has recovered to BWL<10%. Supplemental gel was supplied to all the animals in the study on day 5 to day 15 upon sponsor's request.
The body weight of all animals was monitored throughout the study and animals were euthanized if they lost over 15% of their body weight relative to the weight at the first day of treatment for 3 consecutive days, or lose over 20% of their body weight relative to the weight at the first day of treatment.

[3] = iv, 3 mg/kg, Compound C02 concentration
[4] = iv, 3 mg/kg, Compound C02 concentration, Mean

## O=Cc1c(OCc2ccc(C(=O)O)cc2)cccc1OC1O[C@H](CO)[C@@H](O)[C@H](O)[C@H]1O (stereo partly drawn) [Compound C02]
[1]
  AUClast/D: 947 ng·h/mL per mg/kg
  T1/2: 3.94 h
  Tmax: 0.500 h
[1]; iv, 3 mg/kg, 0.083 h
  Tucaresol concentration, Mean: 28.3 ng/mL
[1]; iv, 3 mg/kg, 0.25 h
  Tucaresol concentration, Mean: 128 ng/mL
[1]; iv, 3 mg/kg, 0.5 h
  Tucaresol concentration, Mean: 165 ng/mL
[1]; iv, 3 mg/kg, 1 h
  Tucaresol concentration, Mean: 123 ng/mL
[1]; iv, 3 mg/kg, 2 h
  Tucaresol concentration, Mean: 114 ng/mL
[1]; iv, 3 mg/kg, 4 h
  Tucaresol concentration, Mean: 76.1 ng/mL
[1]; iv, 3 mg/kg, 8 h
  Tucaresol concentration, Mean: 37.1 ng/mL
[1]; [3]
  concentration at 0.083 h: 1830 ng/mL
  concentration at 0.25 h: 537 ng/mL
[1]; [4]
  concentration at 0.083 h: 2390 ng/mL
  concentration at 0.25 h: 578 ng/mL
  concentration at 0.5 h: 220 ng/mL
[1]; po, 10 mg/kg, 0.25 h
  Tucaresol concentration, Mean: 972 ng/mL
[1]; po, 10 mg/kg, 0.5 h
  Tucaresol concentration, Mean: 1398 ng/mL
[1]; po, 10 mg/kg, 1 h
  Tucaresol concentration, Mean: 915 ng/mL
[1]; po, 10 mg/kg, 2 h
  Tucaresol concentration, Mean: 532 ng/mL
[1]; po, 10 mg/kg, 4 h
  Tucaresol concentration, Mean: 390 ng/mL
[1]; po, 10 mg/kg, 8 h
  Tucaresol concentration, Mean: 241 ng/mL
[1]; po, 10 mg/kg, 24 h
  Tucaresol concentration, Mean: 12.3 ng/mL
[1]; po, 10 mg/kg, C02 concentration
  concentration at 0.5 h: 59.1 ng/mL
[2]; 20 mg/kg, PO, QDx5 (day 1-5), as a monotherapy or in combination with anti-PD1
  weight loss (in words): not associated with weight loss
[2]; Day 1, Group 02: C02 20 mg/kg p.o. QD × 5 (day 1~5) + Rat IgG2a 10 mg/kg i.p. BIW
  Mean Body Weight: 18.9 ± 0.2
[2]; Day 1, Group 04: C02 20 mg/kg p.o. QD × 5 (day 1~5) in combination with PD-1 (RMP 1-14) 10 mg/kg i.p. BIW × 6 doses
  Mean Body Weight: 19.2 ± 0.2
[2]; Day 4, Group 02: C02 20 mg/kg p.o. QD × 5 (day 1~5) + Rat IgG2a 10 mg/kg i.p. BIW
  Mean Body Weight: 19.2 ± 0.2
[2]; Day 4, Group 04: C02 20 mg/kg p.o. QD × 5 (day 1~5) in combination with PD-1 (RMP 1-14) 10 mg/kg i.p. BIW × 6 doses
  Mean Body Weight: 19.3 ± 0.2
[2]; Day 8, Group 02: C02 20 mg/kg p.o. QD × 5 (day 1~5) + Rat IgG2a 10 mg/kg i.p. BIW
  Mean Body Weight: 19.6 ± 0.2
[2]; Day 8, Group 04: C02 20 mg/kg p.o. QD × 5 (day 1~5) in combination with PD-1 (RMP 1-14) 10 mg/kg i.p. BIW × 6 doses
  Mean Body Weight: 19.9 ± 0.1
[2]; Day 10, Group 02: C02 20 mg/kg p.o. QD × 5 (day 1~5) + Rat IgG2a 10 mg/kg i.p. BIW
  Mean Body Weight: 20 ± 0.3
[2]; Day 10, Group 04: C02 20 mg/kg p.o. QD × 5 (day 1~5) in combination with PD-1 (RMP 1-14) 10 mg/kg i.p. BIW × 6 doses
  Mean Body Weight: 20.3 ± 0.2
[2]; Day 12, Group 02: C02 20 mg/kg p.o. QD × 5 (day 1~5) + Rat IgG2a 10 mg/kg i.p. BIW
  Mean Body Weight: 20.6 ± 0.4
[2]; Day 12, Group 04: C02 20 mg/kg p.o. QD × 5 (day 1~5) in combination with PD-1 (RMP 1-14) 10 mg/kg i.p. BIW × 6 doses
  Mean Body Weight: 21 ± 0.2
[2]; Day 15, Group 02: C02 20 mg/kg p.o. QD × 5 (day 1~5) + Rat IgG2a 10 mg/kg i.p. BIW
  Mean Body Weight: 22.3 ± 0.5
[2]; Day 15, Group 04: C02 20 mg/kg p.o. QD × 5 (day 1~5) in combination with PD-1 (RMP 1-14) 10 mg/kg i.p. BIW × 6 doses
  Mean Body Weight: 21.9 ± 0.4

— patent US20220387365A1, “TUCARESOL DERIVATIVES AND USES THEREOF” (BeyondSpring Pharmaceuticals, Inc., priority 2019, published 2022)
